Reference: the SangsterLogP compilation

Assay: method code SF, from Hansch, C. & Leo, A. (1987). Log P database [Dataset]. Pomona College Medicinal Chemistry Project.

In the case of `CN(C)c1cnccn1`, the logP is reported as 0.96.
With `C#CCCC(=O)N(C)c1ccc(S(=O)(=O)N(C)C)cc1` the logP was 0.88.
Molecule `CC1(C)N=C(N)N=C(N)N1c1cccc([N+](=O)[O-])c1` has a logD (pH 12.0) of 0.06.
In the case of `CC1=Nc2ccc(Br)cc2S(=O)(=O)N1`, the logP is reported as 1.37.
For `CC(=O)Nc1ccc(C(N)=O)cc1`, the logP was 0.01.
Molecule `C=CCN(CC=C)c1c(C)n(-c2ccccc2)c(=O)n(C)c1=O` has a logD (pH 7.4) of 2.59.
Molecule `Sc1ncccn1` has a logP of -0.97.
For `S=C=Nc1ccccc1`, the logP was 3.25.
`O=C(O)c1ccccc1-c1ccccc1C(=O)O` showed a logD (pH 1.0) of 2.07.
For `CCCCN(C)N=Nc1cn([C@@H]2O[C@H](CO)[C@@H](O)[C@H]2O)c(=O)n(C)c1=O`, the logP was -0.45.
For `O=[N+]([O-])c1ccc(O[C@@H]2O[C@H](CO)[C@@H](O[C@H]3O[C@H](CO)[C@@H](O)[C@H](O)[C@H]3O)[C@H](O)[C@H]2O)cc1`, the logP was -1.39.
Molecule `O=c1[nH]c(=O)n([C@H]2C[C@H](O)[C@@H](CO)O2)cc1F` has a logP of -1.16.
For `O=c1cn[nH]c2ccccc12`, the logP was 0.82.
In the case of `c1nc[nH]n1`, the logP is reported as -0.58.
For `CCOCCOC(=O)C(C#N)=CC(C)(C)NCc1ccc(Cl)cc1`, the logP was 4.05.
`CC1=Nc2cc(C)ccc2S(=O)(=O)N1` gave a logP of 0.74.
Work on `O=c1c2ccccc2ncn1O` yielded a logP of -0.45.
With `CCOP(=S)(OCC)Oc1ccc(SC)cc1C` the logP was 4.16.
Work on `O=[N+]([O-])c1ccc2[nH]c(CCCCCc3nc4cc([N+](=O)[O-])ccc4[nH]3)nc2c1` yielded a logP of 1.97.
Molecule `Cc1c(N2CCOCC2)c(=O)n(-c2ccccc2)c(=O)n1C` has a logD (pH 7.4) of 0.69.
Work on `NC(=O)c1cccc(F)c1` yielded a logP of 0.91.
`O=C1c2c(O)ccc(O)c2C(=O)c2c(NCCNCCO)ccc(NCCNCCO)c21` showed a logP of 0.07.
Molecule `COc1ccccc1/N=N/N(C)C` has a logD (pH 7.4) of 2.34.
Work on `COc1cccc(C(=O)N(C)C)c1` yielded a logP of 1.
In the case of `CCOC(=O)CON=Cc1ccc(OCCOC(=O)c2cc(OC)c(OC)c(OC)c2)c(OC)c1`, the logP is reported as 3.26.
Molecule `CC(=O)N(c1ccccc1)S(C)(=O)=O` has a logP of 0.29.
In the case of `Nc1nncs1`, the logD (pH 7.4) is reported as -0.57.
With `C[C@@H]1C[C@@H]([C@H](O)CC2CC(=O)NC(=O)C2)C(=O)[C@@H](C)C1` the logP was 0.55.
`CC(=O)Nc1ccc2oc(C)c(C)c(=O)c2c1` showed a logP of 1.79.
`CN(N=O)C(=O)N[C@H]1C(O)O[C@H](CO)[C@@H](O)[C@@H]1O` (stereo partly drawn) showed a logP of -1.45.
Work on `CCOC(=O)CC(=O)C=Cc1ccc(C)cc1` yielded a logP of 2.63.
`O=C(NP(=O)(N1CC1)N1CC1)c1cc(I)ccc1I` showed a logP of 1.35.
Molecule `Nc1nc(CON=CC(=O)NC2C(=O)N3C(C(=O)OC4OC(=O)c5ccccc54)=CCSC23)cs1` (stereo not drawn) has a logD (pH 6.2) of 1.28.
`NC(=O)c1ccsc1` gave a logP of 0.5.
With `c1cn[nH]n1` the logP was -0.29.
For `CC(=O)Nc1ccccc1Br`, the logP was 1.4.
Molecule `O=C(/C=C/c1ccccc1)N1CCCCC1` has a logP of 2.74.
`O=C(O)Cc1c[nH]c2ccccc12` gave a logP of 1.41.
With `Nc1ccc2nc3ccccc3cc2c1` the logP was 2.62.
Molecule `O=C(Nc1ccccc1)Oc1ccccc1` has a logP of 3.3.
Work on `O=NN(CCCl)C(=O)NC1CS(=O)(=O)CS(=O)(=O)C1` yielded a logP of -0.94.
`[N-]=[N+]=Nc1ccccc1` showed a logP of 2.59.
`CN(C)C(=O)Cc1ccsc1` showed a logP of 0.65.
`C[C@@H]1C[C@H]2[C@@H]3C[C@H](F)C4=CC(=O)C=C[C@]4(C)[C@@]3(F)[C@@H](O)C[C@]2(C)[C@@]1(O)C(=O)COC(=O)C(C)(C)C` gave a logP of 3.86.
Work on `Sc1ccccc1` yielded a logP of 2.52.
In the case of `Nc1ccc(OC(=O)CNC(=O)c2ccccc2)cc1`, the logP is reported as 1.01.
Work on `O=C(CNC(=O)c1ccccc1)Oc1cccc(F)c1` yielded a logP of 2.58.
For `CC1CCCCC1(C)NC(=O)N(CCCl)N=O` (stereo not drawn), the logP was 2.57.
Work on `N#CCc1ccsc1` yielded a logP of 1.26.
In the case of `CCOC(=O)C(=Cc1ccccc1OC)C(C)=O`, the logP is reported as 2.39.
For `N#CN=[N+]([O-])c1cccc(F)c1`, the logP was 1.85.
With `COc1ccc2c(c1)N(CCCN(C)C)c1ccccc1S2` the logP was 4.46.
`CCCCC1OC(=O)c2cc(N(CCO)CCO)ccc21` (stereo not drawn) gave a logP of 1.34.
Molecule `C/C=C/C` has a logP of 2.31.
`O=c1nccc[nH]1` showed a logP of -1.62.
`CC(=O)Oc1ccccc1Br` showed a logP of 2.2.
`CNC(=O)C=Cc1ccccc1` showed a logP of 1.81.
With `NC(=O)C(=Cc1cccc(F)c1)C(N)=O` the logP was 0.1.
In the case of `CCOC(=O)/C(=C/c1c(Cl)cccc1Cl)C(C)=O`, the logP is reported as 2.86.
Work on `COC(=O)c1cccc(O)c1` yielded a logP of 1.89.
In the case of `CN(C)CCc1ccsc1`, the logP is reported as 1.94.
With `CCCOC=O` the logP was 0.83.
`CCC(C)NC(=O)C(=Cc1ccccc1)OC` (stereo not drawn) gave a logP of 2.86.
With `CNP(=O)(OC)Oc1cccc(C(C)(C)C)c1` (stereo not drawn) the logP was 2.65.
Work on `CC(CN(C)C)CN1c2ccccc2Sc2ccccc21` (stereo not drawn) yielded a logP of 4.71.
`ONc1ccccc1` gave a logP of 0.79.
Molecule `O=[N+]([O-])c1cc[n+]([O-])cc1` has a logP of -0.55.
Molecule `CC(=O)Oc1ccccc1C(C)C` has a logP of 2.78.
With `O=Cc1cccc(C(F)(F)F)c1` the logP was 2.47.
`CCC(C)=O` showed a logP of 0.5.
Molecule `Cn1ccccc1=O` has a logP of -0.23.
For `O=C(C=Cc1ccco1)c1ccco1`, the logP was 2.34.
Molecule `CN(C)c1ccc(S(N)(=O)=O)cc1` has a logD (pH 7.0) of 0.76.
`CN(C)/N=N/c1ccccc1Cl` gave a logD (pH 7.4) of 3.03.
`CCC1=Nc2cc(Cl)ccc2S(=O)(=O)N1` showed a logP of 1.61.
`CN(C)S(=O)(=O)c1ccccc1` showed a logP of 1.35.
In the case of `CCCCC1C(=O)NC(=O)NC1=O`, the logP is reported as 0.77.
`COc1ccc(CN(CCN(C)C)c2ccccn2)cc1` gave a logP of 2.85.
With `O=[N+]([O-])c1ccc(C=Cc2nccc(Cl)n2)o1` the logP was 1.31.
In the case of `CN(C)c1ccc(N=C2C=CC(=O)C=C2)cc1`, the logP is reported as 2.02.
`CCCC=O` gave a logP of 0.88.
In the case of `Cc1c(NCC(C)C)c(=O)n(-c2ccccc2)c(=O)n1C`, the logD (pH 7.4) is reported as 1.48.
With `ClCCCCl` the logP was 2.
Molecule `CCCCC1OC(=O)c2cc(Br)ccc21` (stereo not drawn) has a logP of 4.24.
`N#C/C=C/c1ccccc1` showed a logP of 1.96.
Molecule `O=S1(=O)NC(C2=CCCC2)=Nc2ccccc21` has a logP of 1.69.
Molecule `O=[N+]([O-])C=Cc1ccsc1` has a logP of 1.94.
`COc1cc(C=NO)ccc1O` gave a logP of 2.16.
Molecule `N#CCC(N)=C(C#N)C#N` has a logP of -0.13.
Molecule `CO[C@H]1O[C@H](CNC(=O)N(C)N=O)[C@@H](O)[C@H](O)[C@H]1O` has a logD (pH 7.4) of -1.57.
Work on `CCCCC1=Nc2ccc(Cl)cc2S(=O)(=O)N1` yielded a logP of 2.52.
In the case of `O=c1[nH]c2ccccc2s1`, the logP is reported as 1.76.
For `C1=CCCCC1`, the logP was 2.86.
For `CCOC(=O)C(=O)OCC`, the logP was 0.56.
`Cc1ccc(S(=O)(=O)F)cc1` gave a logP of 2.74.
Work on `COc1cccc(S(C)(=O)=O)c1` yielded a logD (pH 7.0) of 0.86.
Work on `CN(C)Cc1cccs1` yielded a logP of 1.67.
Work on `CC(C)C#CN(C)C(C)C` yielded a logD (pH 9.2) of 2.29.
For `CCCOc1cccc(C=C(C(C)=O)C(=O)OCC)c1`, the logP was 3.34.
Work on `CCOC(=O)C(=Cc1ccc(OC)cc1)C(=O)OCC` yielded a logP of 3.28.
For `CC1=C(C(=O)O)N2C(=O)[C@@H](NC(=O)Cc3cccs3)[C@H]2SC1`, the logD (pH 3.0) was 0.61.
Molecule `Cc1ccccc1OCC(O)CO` (stereo not drawn) has a logP of 1.41.
`O=C(OC(=O)c1ccccc1)c1ccccc1` showed a logP of 2.26.
Work on `CCOC(=O)C(=Cc1ccccc1OC)C(=O)OCC` yielded a logP of 3.29.
`O=C(O)c1cc2ccccc2[nH]1` gave a logD (pH 2.0) of 2.31.
For `CC1(O)OC(=O)c2ccccc21` (stereo not drawn), the logP was 0.81.
Molecule `CCCCNCc1cccnc1` has a logD (pH 11.0) of 1.34.
Molecule `O=C1OC(Cc2ccccc2)c2ccccc21` (stereo not drawn) has a logP of 3.12.
With `Cc1c(N(C)C)c(=O)n(-c2ccccc2)c(=O)n1CCO` the logD (pH 7.4) was 0.85.
`CCOC(=O)c1cccc([N+](=O)[O-])c1` showed a logD (pH 7.0) of 2.35.
`Nc1ccccc1S` gave a logP of 1.43.
`CC(=O)Nc1ccc(S(=O)(=O)F)cc1` showed a logP of 2.17.
Molecule `Cc1nn(-c2ccccc2)c(C)c1N=O` has a logP of 2.28.
